Results as given in PubChem BioAssay (NCI).
Where “and” joins values, the source holds several entries; their conditions need not be identical. Identical values can stand only once.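 In this assay, cells in 96-well plates receive the compound at five concentrations for 48 hours. Endpoints are linearly interpolated between the surrounding concentrations. At the GI50, growth is halved. Definition used: TGI = concentration required for complete inhibition of growth.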

Each molecule was assayed on MDA-MB-468 breast (assay: growth of human tumour cells (NCI), 48 h).
`Clc1ccc2c(c1)N(CCCN1CCCC1)c1ccccc1S2` showed a GI50 of 2.75 µM and a TGI of 8.05 µM. `Cc1ccc(C(SCC(N)C(=O)O)(c2ccc(C)cc2)c2ccc(C)cc2)cc1` (stereo not given) showed a GI50 of 1.46 µM and a TGI of 16.6 µM. With `CCN1C(=O)N(CC)C2Nn3c(s/c(=C\c4ccccc4Br)c3=O)=NC21` (stereo not given) the GI50 was 1.1 µM and the TGI was 6.87 µM. `CN(Cc1cc(Br)cc(Br)c1O)Cc1cc(Br)cc(Br)c1O` showed a GI50 of 2.09 µM and a TGI of 13 µM. `Cc1ccc(-c2cc(C(F)(F)F)nn2-c2ccc(S(N)(=O)=O)cc2)cc1` was tested, and the GI50 was 24.2 µM and the TGI was 90.7 µM. With `NC1CCC(Nc2nc(NCc3ccc(-c4cccs4)nc3)c3ncn(C4CCCC4)c3n2)CC1` (stereo not given) the GI50 was < 0.0134 µM and the TGI was 0.035 µM. In the case of `CS(=O)(=O)Nc1ccc(-c2cc(-c3ccccc3)cc(C(N)=O)c2N)cc1`, the GI50 is reported as 14.5 µM and the TGI is reported as > 25 µM. With `CC1(C)CCC2=C(O1)c1ccccc1C(=O)C2=O` the GI50 was 1.68 µM and the TGI was 3.36 µM. Molecule `Cc1cc(O)ccc1C1=NN(c2ccc(S(C)(=O)=O)cc2)C(=O)CC1` has a GI50 of 11 µM and a TGI of 44.3 µM. Work on `O=C1NC(=O)C(=C/C=C/c2ccccc2)C(=O)N1` yielded a GI50 of 2.99 µM and a TGI of 10.1 µM. `Cn1cc(C2=C(c3cn(C)c4c([N+](=O)[O-])cccc34)C(=O)NC2=O)c2ccccc21` was tested, and the GI50 was > 25 µM and the TGI was > 25 µM. For `COc1ccc(C(=O)c2cc(OC)c(OC)c(OC)c2)cc1/C=C/C(=O)c1ccc(OC)c(OC)c1`, the GI50 was 1.25 µM and the TGI was 77.7 µM. In the case of `CCOC(=O)n1cc(C2=C(c3cn(C)c4ccccc34)COC2=O)c2ccccc21`, the GI50 is reported as 0.053 µM and the TGI is reported as > 100 µM. With `C[C@H](Nc1ncnc2nc[nH]c12)c1cc2ccc(F)cc2nc1-c1ccccn1` the GI50 was 31.9 µM and the TGI was > 100 µM. In the case of `[O-][n+]1ccccc1S`, the GI50 is reported as 4.15 µM and the TGI is reported as 45.2 µM. Work on `Nc1nc(OCc2cc(Br)cs2)c2[nH]cnc2n1` yielded a GI50 of 14 µM and a TGI of 58.6 µM. `COc1cc2nc(SCC(=O)Nc3cc(OC)c(OC)c(OC)c3)n(Cc3ccccc3)c(=O)c2cc1OC` showed a GI50 of 5.72 µM and a TGI of 20.2 µM. In the case of `CC(=O)c1cc(C(=O)c2ccc3c(c2)Sc2ccccc2N3)c2c(C)cc(C)cn12`, the GI50 is reported as 0.496 µM and the TGI is reported as > 100 µM. `CCCCCCCCN(CCCCCCCC)CCCCCCNc1cc(OC)cc2cccnc12` was tested, and the GI50 was 3.71 µM and the TGI was 13.5 µM. With `C=CC(=O)NCc1cccc(Nc2ncc(Br)c(NCCCNC(=O)C3CCC3)n2)c1` the GI50 was 1.64 µM and 1.02 µM and the TGI was 4.33 µM and 5 µM. In the case of `COc1ccc(C(SCC(N)C(=O)O)(c2ccccc2)c2ccccc2)cc1` (stereo not given), the GI50 is reported as 0.0627 µM and the TGI is reported as > 78.1 µM. `O=C(/C(=C\c1ccc([N+](=O)[O-])cc1)S(=O)Cc1ccc(F)cc1)c1ccc(F)cc1` (stereo not given) was tested, and the GI50 was 2.05 µM and the TGI was 4.36 µM. For `CCCNNC(=O)c1ccc(-c2ccc(NC(=O)CCCCCCC(=O)N[C@H](C(=O)N3C[C@H](O)C[C@H]3C(=O)N[C@@H](C)c3ccc(-c4scnc4C)cc3)C(C)(C)C)cc2)cc1`, the GI50 was 0.592 µM. Molecule `C/C(=C\CCc1ccoc1)CC/C=C(\C)CCCN1CCOCC1` has a GI50 of 2.58 µM and a TGI of 9.59 µM. `CN(C)c1ccc(N=C2C=CC(=[N+](C)C)C=C2)cc1` gave a GI50 of 3.04 µM and a TGI of 12.2 µM. `Clc1cccc(Cl)c1C1CSc2ccccc2N=C1c1ccccc1` (stereo not given) was tested, and the GI50 was 9.59 µM and the TGI was 29.2 µM. `O=C1c2nsnc2C(=O)c2c(F)c(F)c(F)c(F)c21` showed a GI50 of 0.672 µM and a TGI of 2.32 µM. `COC(=O)[C@]12CC[C@@H](C)[C@H](C)[C@@H]1C1=CC[C@@H]3[C@@]4(C)C(C=O)=C[C@@](C)(COC(C)=O)C4=CC[C@@]3(C)[C@]1(C)CC2` gave a GI50 of 4.21 µM and a TGI of 17.7 µM. With `COc1ccc2c(c1)[nH]c(=O)c1c3cc(OC)ccc3cn21` the GI50 was 0.0393 µM and the TGI was 1.16 µM. For `Cc1ccccc1-n1ncc(C(=O)c2ccccc2)c1N`, the GI50 was > 25 µM and the TGI was > 25 µM. Work on `COc1cc(-c2nc3ccccc3s2)ccc1NC(=O)COc1ccc(Cl)cc1` yielded a GI50 of 2.08 µM and a TGI of 56.6 µM. In the case of `CCCCCCCCCCCCCC1=NCCN1CCO`, the GI50 is reported as 2.12 µM and the TGI is reported as 5.58 µM. With `CC(C)(C)C(=O)OCOP(=O)(OCOC(=O)C(C)(C)C)C1CC(O)N(O)C1=O` (stereo not given) the GI50 was 5.84 µM and the TGI was > 100 µM.
